Laboratory results as given in patent publication US20050222266A1, “2-indanylamino derivatives for the therapy of chronic pain” (priority 2002, published 2005).
Counter-ions that a name gives are not always drawn.

System: carrageenan-induced thermal hyperalgesia
Experiment: carrageenan-induced thermal hyperalgesia model
Assay type: in vivo, rats
Conditions: for minimum effective dose: given 3 hours after carrageenan
Procedure: In the carrageenan-induced thermal hyperalgesia model, male rats were habituated to the rat plantar test apparatus and thermal hyperalgesia was then assessed as described in the paragraph concerning the CCI model. Briefly, after baseline paw withdrawal latencies were determined, animals received an intraplantar injection of carrageenan (100 μl of a 20 mg/ml solution) into the right hind paw. Paw withdrawal latencies (PWL) were reassessed following the same protocol as above 2.5 hours after carrageenan. (this time point represented the start of peak hyperalgesia) to ascertain that hyperalgesia had developed. CHF 3381 (3-10-30-60 mg/kg i.p. and 10-30-60-100 mg/kg p.o.) was then administered 3 hours post carrageenan and paw withdrawal latencies were taken again at 3.5, 4 and 5 hours post carrageenan. Carrageenan induced a significant reduction of paw withdrawal latency in all animals at 2.5 hours following injection. This hyperalgesia was maintained in vehicle-treated animals for at least five hours after carrageenan. The i.p. and p.o. administration of CHF 3381 at 3 hours after carrageenan, dose-dependently antagonised the maintenance of thermal hyperalgesia with respective minimum effective doses of 10 mg/kg i.p. and 30 mg/kg p.o. (Table 5).

## NC(=O)CNC1Cc2ccccc2C1 [CHF 3381, N-2(indanyl)-glicinamide hydrochloride]
3 mg/kg i.p. at 3 h, 3.5 h after carrageenan
  Paw withdrawal latency: 5.1 ± 0.60 s
3 mg/kg i.p. at 3 h, 4.0 h after carrageenan
  Paw withdrawal latency: 6.7 ± 0.64 s
3 mg/kg i.p. at 3 h, 5.0 h after carrageenan
  Paw withdrawal latency: 8.3 ± 0.50 s
3 mg/kg i.p. group, 0 h (baseline, before carrageenan and dosing)
  Paw withdrawal latency: 11.2 ± 0.92 s
3 mg/kg i.p. group, 2.5 h after carrageenan (before dosing at 3 h)
  Paw withdrawal latency: 4.4 ± 0.50 s
10 mg/kg i.p. at 3 h, 3.5 h after carrageenan
  Paw withdrawal latency: 7.4 ± 0.50 s
10 mg/kg i.p. at 3 h, 4.0 h after carrageenan
  Paw withdrawal latency: 7.8 ± 0.66 s
10 mg/kg i.p. at 3 h, 5.0 h after carrageenan
  Paw withdrawal latency: 8.4 ± 0.80 s
10 mg/kg i.p. group, 0 h (baseline, before carrageenan and dosing)
  Paw withdrawal latency: 11.8 ± 0.49 s
10 mg/kg i.p. group, 2.5 h after carrageenan (before dosing at 3 h)
  Paw withdrawal latency: 5.1 ± 0.50 s
10 mg/kg p.o. at 3 h, 3.5 h after carrageenan
  Paw withdrawal latency: 6.65 ± 1.2 s
10 mg/kg p.o. at 3 h, 4.0 h after carrageenan
  Paw withdrawal latency: 6.90 ± 0.61 s
10 mg/kg p.o. at 3 h, 5.0 h after carrageenan
  Paw withdrawal latency: 7.29 ± 0.83 s
10 mg/kg p.o. group, 0 h (baseline, before carrageenan and dosing)
  Paw withdrawal latency: 12.96 ± 1.01 s
10 mg/kg p.o. group, 2.5 h after carrageenan (before dosing at 3 h)
  Paw withdrawal latency: 4.79 ± 0.71 s
30 mg/kg i.p. at 3 h, 3.5 h after carrageenan
  Paw withdrawal latency: 6.8 ± 0.70 s
30 mg/kg i.p. at 3 h, 4.0 h after carrageenan
  Paw withdrawal latency: 8.8 ± 0.80 s
30 mg/kg i.p. at 3 h, 5.0 h after carrageenan
  Paw withdrawal latency: 8.1 ± 0.80 s
30 mg/kg i.p. group, 0 h (baseline, before carrageenan and dosing)
  Paw withdrawal latency: 11.3 ± 0.84 s
30 mg/kg i.p. group, 2.5 h after carrageenan (before dosing at 3 h)
  Paw withdrawal latency: 4.7 ± 0.60 s
30 mg/kg p.o. at 3 h, 3.5 h after carrageenan
  Paw withdrawal latency: 7.38 ± 0.65 s
30 mg/kg p.o. at 3 h, 4.0 h after carrageenan
  Paw withdrawal latency: 7.61 ± 0.59 s
30 mg/kg p.o. at 3 h, 5.0 h after carrageenan
  Paw withdrawal latency: 9.04 ± 0.85 s
30 mg/kg p.o. group, 0 h (baseline, before carrageenan and dosing)
  Paw withdrawal latency: 11.98 ± 0.71 s
30 mg/kg p.o. group, 2.5 h after carrageenan (before dosing at 3 h)
  Paw withdrawal latency: 5.78 ± 0.93 s
60 mg/kg i.p. at 3 h, 3.5 h after carrageenan
  Paw withdrawal latency: 8.0 ± 1.20 s
60 mg/kg i.p. at 3 h, 4.0 h after carrageenan
  Paw withdrawal latency: 10.4 ± 1.39 s
60 mg/kg i.p. at 3 h, 5.0 h after carrageenan
  Paw withdrawal latency: 10.7 ± 0.90 s
60 mg/kg i.p. group, 0 h (baseline, before carrageenan and dosing)
  Paw withdrawal latency: 11.4 ± 0.85 s
60 mg/kg i.p. group, 2.5 h after carrageenan (before dosing at 3 h)
  Paw withdrawal latency: 4.1 ± 0.50 s
60 mg/kg p.o. at 3 h, 3.5 h after carrageenan
  Paw withdrawal latency: 8.68 ± 1.16 s
60 mg/kg p.o. at 3 h, 4.0 h after carrageenan
  Paw withdrawal latency: 8.20 ± 0.85 s
60 mg/kg p.o. at 3 h, 5.0 h after carrageenan
  Paw withdrawal latency: 8.34 ± 0.81 s
60 mg/kg p.o. group, 0 h (baseline, before carrageenan and dosing)
  Paw withdrawal latency: 11.98 ± 0.67 s
60 mg/kg p.o. group, 2.5 h after carrageenan (before dosing at 3 h)
  Paw withdrawal latency: 5.22 ± 0.58 s
100 mg/kg p.o. and 60 mg/kg i.p.
  reversal of thermal hyperalgesia induced by carrageenan: nearly complete reversal
100 mg/kg p.o. at 3 h, 3.5 h after carrageenan
  Paw withdrawal latency: 10.31 ± 1.20 s
100 mg/kg p.o. at 3 h, 4.0 h after carrageenan
  Paw withdrawal latency: 8.72 ± 0.75 s
100 mg/kg p.o. at 3 h, 5.0 h after carrageenan
  Paw withdrawal latency: 9.34 ± 0.85 s
100 mg/kg p.o. group, 0 h (baseline, before carrageenan and dosing)
  Paw withdrawal latency: 13.24 ± 0.75 s
100 mg/kg p.o. group, 2.5 h after carrageenan (before dosing at 3 h)
  Paw withdrawal latency: 5.52 ± 0.96 s
i.p.
  minimum effective dose: 10 mg/kg
p.o.
  minimum effective dose: 30 mg/kg
